{"source": "the SangsterLogP compilation", "key": {"[1]": {"assay": "method code SF-AS, from DOI: 10.1021/jm00307a001, PMID: 5637185"}, "[2]": {"assay": "method code SF, from DOI: 10.1021/jm00111a036, PMID: 2066990"}, "[3]": {"assay": "method code SF-AS, from Korenman, Y.; Sotnikova, G. (1975). Extraction of vanillins from aqueous solutions. Zh. Prikl. Khim., 48(1)188-191."}, "[4]": {"assay": "method code SF-ESR, from DOI: 10.1111/1523-1747.ep12319780, PMID: 2551971", "conditions": "pH 7.0"}, "[5]": {"assay": "method code SF-GLC, from Park, Y.; Park, S. (2000). Determination and prediction of octanol/water partition coefficients and air-water partition coefficients for environmental toxic chemicals. 11(7)773-779."}, "[6]": {"conditions": "pH 1.0"}, "[7]": {"assay": "method code SF-AS, from DOI: 10.1002/jps.2600600712, PMID: 4398902"}, "[8]": {"assay": "method code SF-AS, from DOI: 10.1016/0022-1902(68)80266-0", "conditions": "pH 4.0"}, "[9]": {"assay": "method code SF, from DOI: 10.1248/yakushi1947.99.3_235", "conditions": "pH 11.0"}, "[10]": {"assay": "not given", "remark": "listed apart in the source"}, "[11]": {"assay": "method code SF-RC, from DOI: 10.1002/qsar.19880070404", "conditions": "pH 0.0"}, "[12]": {"assay": "method code SF-AS, from DOI: 10.1016/s0006-3495(76)85671-8, PMID: 1247644", "conditions": "pH 8.0"}, "[13]": {"assay": "method code SF, from DOI: 10.1248/cpb.42.1525, PMID: 7923475"}, "[14]": {"assay": "method code SF-AS, from DOI: 10.1080/09553007214550551, PMID: 4537457"}, "[15]": {"assay": "not given", "remark": "listed apart in the source"}, "[16]": {"assay": "method code SF-POL, from DOI: 10.1111/j.1365-2044.1990.tb14524.x, PMID: 2316851", "conditions": "pH 7.1"}, "[17]": {"assay": "not given", "remark": "listed apart in the source"}, "[18]": {"assay": "not given", "remark": "listed apart in the source"}, "[19]": {"assay": "method code SF-AS, from DOI: 10.1021/jm00304a030, PMID: 5793164", "conditions": "pH 7.4"}, "[20]": {"assay": "not given", "remark": "listed apart in the source"}, "[21]": {"assay": "not given", "remark": "listed apart in the source"}, "[22]": {"assay": "method code SF-HPLC, from PMID: 1880579", "conditions": "pH 7.4"}, "[23]": {"assay": "method code SF, from DOI: 10.1007/s00253-012-4358-8, PMID: 23081771", "conditions": "pH 7.0"}, "[24]": {"assay": "method code SF, from DOI: 10.1246/bcsj.60.4357"}, "[25]": {"assay": "method code SF-AS, from DOI: 10.1111/j.2042-7158.1989.tb06484.x, PMID: 2570835"}, "[26]": {"assay": "method code SF-RC, from DOI: 10.1002/jps.2600840617, PMID: 7562417"}, "[27]": {"assay": "not given", "remark": "listed apart in the source"}, "[28]": {"assay": "method code SF-RC, from DOI: 10.1016/0048-3575(88)90037-5"}, "[29]": {"assay": "method code SF-EPR, from DOI: 10.1016/0003-9861(82)90097-2, PMID: 6284047", "conditions": "pH 7.4"}, "[30]": {"assay": "method code SF-RC, from DOI: 10.1016/0006-2952(81)90006-x, PMID: 6456004"}, "[31]": {"assay": "method code SF-HPLC, from DOI: 10.1002/jps.2600810507, PMID: 1403673"}, "[32]": {"assay": "method code SF, from DOI: 10.1002/jps.2600641111, PMID: 1195110", "conditions": "pH 7.4"}, "[33]": {"assay": "not given", "remark": "listed apart in the source"}, "[34]": {"assay": "method code SF, from PMID: 15170", "conditions": "pH 5.0"}, "[35]": {"assay": "method code SF-AS, from DOI: 10.1016/0006-2952(75)90156-2, PMID: 235934", "conditions": "pH 7.4"}, "[36]": {"assay": "method code SF-HPLC, from DOI: 10.1002/ps.2780370106", "conditions": "pH 0.0"}, "[37]": {"assay": "not given", "remark": "listed apart in the source"}, "[38]": {"assay": "not given", "remark": "listed apart in the source"}, "[39]": {"assay": "method code SF-RC,FL, from DOI: 10.1016/0006-2952(81)90006-x, PMID: 6456004"}, "[40]": {"assay": "not given", "remark": "listed apart in the source"}, "[41]": {"assay": "method code SF-HPLC, from DOI: 10.1007/bf03246517"}, "[42]": {"assay": "method code SF-RC, from DOI: 10.1016/s0969-8051(98)00005-5, PMID: 9720665", "conditions": "pH 7.0"}, "[43]": {"assay": "method code SF-AS, from PMID: 2748530"}, "[44]": {"assay": "method code SF-AS, from DOI: 10.1016/0014-2999(86)90191-3, PMID: 3780854", "conditions": "pH 7.4"}, "[45]": {"assay": "not given", "remark": "listed apart in the source"}, "[46]": {"assay": "method code SF-RC, from DOI: 10.1016/0006-2952(75)90159-8, PMID: 1168477"}, "[47]": {"assay": "not given", "remark": "listed apart in the source"}, "[48]": {"assay": "not given", "remark": "listed apart in the source"}, "[49]": {"assay": "not given", "remark": "listed apart in the source"}, "[50]": {"assay": "method code SF, from DOI: 10.1021/js9601804, PMID: 9344176", "conditions": "pH 8.0"}}}
{"compound": "C#CC1(O)CCCCC1", "values": [{"measurement": "logP", "setting": "[1]", "result": 1.73}]}
{"compound": "O=[N+]([O-])c1nccn1CC(O)C/C=C/I", "note": "(stereo unspecified)", "values": [{"measurement": "logP", "setting": "[2]", "result": 0.4}]}
{"compound": "O=C(Cn1ccnc1[N+](=O)[O-])NCC(F)(F)C(F)(F)F", "values": [{"measurement": "logP", "result": 0.76}]}
{"compound": "COc1ccc(C=O)cc1O", "values": [{"measurement": "logP", "setting": "[3]", "result": 0.97}]}
{"compound": "CC1(C)COC(C)(C)N1O", "values": [{"measurement": "logD", "setting": "[4]", "result": 0.48}]}
{"compound": "CC(=O)OCCC(C)C", "values": [{"measurement": "logP", "setting": "[5]", "result": 2.55}]}
{"compound": "O=C(O)Cc1c(Cl)ccc(Cl)c1Cl", "values": [{"measurement": "logD", "setting": "[6]", "result": 3.2}]}
{"compound": "CCN1CCCCCC1=O", "values": [{"measurement": "logP", "setting": "[7]", "result": 0.65}]}
{"compound": "O=C(CC(=O)C(F)(F)F)c1cccs1", "values": [{"measurement": "logD", "setting": "[8]", "result": 1.46}]}
{"compound": "OCCC1CCCCN1", "note": "(stereo unspecified)", "values": [{"measurement": "logD", "setting": "[9]", "result": 0.11}]}
{"compound": "CCOc1ccccc1O", "values": [{"measurement": "logP", "setting": "[10]", "result": 1.91}]}
{"compound": "O=C(O)Cc1ccccc1I", "values": [{"measurement": "logD", "setting": "[11]", "result": 2.33}]}
{"compound": "Cc1nc2c(Cl)c(Cl)c(Cl)c(Cl)c2[nH]1", "values": [{"measurement": "logD", "setting": "[12]", "result": 2.83}]}
{"compound": "COC(=O)c1ccccc1", "values": [{"measurement": "logP", "setting": "[13]", "result": 2.09}]}
{"compound": "CC(=O)c1ccc(Cl)cc1", "values": [{"measurement": "logP", "setting": "[14]", "result": 2.35}]}
{"compound": "Cc1ccccc1C", "values": [{"measurement": "logP", "setting": "[15]", "result": 3.29}]}
{"compound": "NC(=S)NN=C1C=CC(=NNC(N)N)C=C1", "values": [{"measurement": "logD", "setting": "[16]", "result": -1.4}]}
{"compound": "O=S(=O)(CS(=O)(=O)C(F)(F)F)c1ccc(Cl)c(Cl)c1", "values": [{"measurement": "logP", "setting": "[17]", "result": 1.7}]}
{"compound": "O=[N+]([O-])c1nccn1C1OCC(I)CC1F", "note": "(stereo unspecified)", "values": [{"measurement": "logP", "setting": "[18]", "result": 0.8}]}
{"compound": "Brc1ccc2[nH]ccc2c1", "values": [{"measurement": "logD", "setting": "[19]", "result": 3}]}
{"compound": "NC(N)=Nc1nc(CSCCC(N)=NS(N)(=O)=O)cs1", "values": [{"measurement": "logP", "setting": "[20]", "result": -0.56}]}
{"compound": "C1COCCOCCOCCO1", "values": [{"measurement": "logP", "setting": "[21]", "result": -0.04}]}
{"compound": "O=[N+]([O-])c1nccn1C1OC(CI)C(O)C1O", "note": "(stereo unspecified)", "values": [{"measurement": "logD", "setting": "[22]", "result": 0.7}]}
{"compound": "C=Cc1ccc(O)cc1", "values": [{"measurement": "logD", "setting": "[23]", "result": 2.36}]}
{"compound": "CCc1cc([N+](=O)[O-])cc([N+](=O)[O-])c1O", "values": [{"measurement": "logP", "setting": "[24]", "result": 2.67}]}
{"compound": "O=c1[nH][nH]c(=O)c2ccccc12", "values": [{"measurement": "logP", "setting": "[25]", "result": 0.11}]}
{"compound": "Nc1ccn(C[C@@H](CO)OCP(=O)(O)O)c(=O)n1", "values": [{"measurement": "logP", "setting": "[26]", "result": -3.17}]}
{"compound": "CCCn1cnc2c(N)ncnc21", "values": [{"measurement": "logP", "setting": "[27]", "result": 0.74}]}
{"compound": "CC(C)Nc1nc(Cl)nc(NCCO)n1", "values": [{"measurement": "logP", "setting": "[28]", "result": 0.78}]}
{"compound": "CCC1(C)OCC(C)(C)N1O", "note": "(stereo unspecified)", "values": [{"measurement": "logD", "setting": "[29]", "result": 0.57}]}
{"compound": "NCCc1ccccc1", "values": [{"measurement": "logP", "setting": "[30]", "result": 1.16}]}
{"compound": "O=C(O)c1ccc(C(=O)O)cc1", "values": [{"measurement": "logP", "setting": "[31]", "result": 1.68}]}
{"compound": "CC(=O)NCCn1c([N+](=O)[O-])cnc1C", "values": [{"measurement": "logD", "setting": "[32]", "result": -0.47}]}
{"compound": "O=C(NCCO[N+](=O)[O-])c1cccnc1", "values": [{"measurement": "logP", "setting": "[33]", "result": -1.02}]}
{"compound": "CCC1(CC)C(=O)NC(=O)NC1=O", "values": [{"measurement": "logD", "setting": "[34]", "result": 0.71}]}
{"compound": "CCOc1ccc([N+](=O)[O-])cc1", "values": [{"measurement": "logD", "setting": "[35]", "result": 2.53}]}
{"compound": "Cc1c(F)c(F)c(C(=O)O)c(F)c1F", "values": [{"measurement": "logD", "setting": "[36]", "result": 3.15}]}
{"compound": "CO[C@@H]([C@H](O)[C@H](O)CO)[C@@H](O)C=O", "values": [{"measurement": "logP", "setting": "[37]", "result": -3}]}
{"compound": "CC(C)(C)c1cn2nc(S(N)(=O)=O)sc2n1", "values": [{"measurement": "logP", "setting": "[38]", "result": 2.15}]}
{"compound": "NCCc1ccc(O)cc1", "values": [{"measurement": "logP", "setting": "[39]", "result": -0.24}]}
{"compound": "CCC(CC)C(=O)NC(N)=O", "values": [{"measurement": "logP", "setting": "[40]", "result": 0.91}]}
{"compound": "OCCc1ccc(O)cc1", "values": [{"measurement": "logP", "setting": "[41]", "result": 0.69}]}
{"compound": "OC1OC2COC(CI)OC2C(O)C1O", "note": "(stereo unspecified)", "values": [{"measurement": "logD", "setting": "[42]", "result": 1.1}]}
{"compound": "O=[N+]([O-])c1nccn1CC(O)COCC(F)(F)F", "note": "(stereo unspecified)", "values": [{"measurement": "logP", "setting": "[43]", "result": 0.46}]}
{"compound": "COc1noc2c1CN(C)CC2", "values": [{"measurement": "logD", "setting": "[44]", "result": 0.4}]}
{"compound": "O=[N+]([O-])c1nccn1[C@H]1O[C@H](CF)[C@@H](O)[C@@H]1O", "values": [{"measurement": "logP", "setting": "[45]", "result": 0.04}]}
{"compound": "C=CCN(C(C)=O)C(C)C", "values": [{"measurement": "logP", "setting": "[46]", "result": 1.14}]}
{"compound": "O=C1NC(=O)c2ccccc21", "values": [{"measurement": "logP", "setting": "[47]", "result": 1.04}]}
{"compound": "CCCCCCC", "values": [{"measurement": "logP", "setting": "[48]", "result": 4.48}]}
{"compound": "COc1nc(C(Cl)(Cl)Cl)c(Cl)c(OC)c1Cl", "values": [{"measurement": "logP", "setting": "[49]", "result": 5.48}]}
{"compound": "O=C1COc2ccccc2N1", "values": [{"measurement": "logD", "setting": "[50]", "result": 1.31}]}
